# Laboratory results from patent US9907791B2, “Ron inhibitors for use in preventing and treating bone loss” (UNIVERSITY OF UTAH RESEARCH FOUNDATION, priority 2014, dated 2018).
# Legend:
# [1] = test system: DU4475 breast cancer cells; assay: Intratibial DU4475 tumor-induced osteolysis; format: in vivo, mice; details: treatment began 3 days post tumor cell injection
# Source text: All procedures involving mice and experimental protocols were approved by the Institutional Animal Care and Use Committee (IACUC) of the University of Utah. The RonTK−/− mice which reside on the FVB background, were crossed with NOD.SCID mice for an immune-compromised mouse model. As a control, wild-type FVB mice were also crossed with NOD.SCID mice. The STK−/− mice, which are on a C57BL/6 background, were compared to wild-type C57BL/6 mice as controls. Mice for all experiments were 6 to 8 weeks of age. For intratibial injections, 1×10^5 (PyMTor DU4475) or 3×10^5 (MDA-MB-231) tumor cells were resuspended in 10 μL matrigel and injected into the right tibia of anesthetized female FVB (PyMT) or NOD.SCID mice carrying various alleles of RON. Osteolysis was assessed by X-ray radiography. Dissected hindlimbs from mice sacrificed at the final time point in each experiment were placed in the Kodak In-vivo Multispectral Imaging System FX and exposed to X-ray radiography at 35 kV for 100 sec. Excess tumor tissue was removed from the bones prior to X-ray. Osteolytic lesions were quantified using Image J software (NCBI). All images were compared to the contralateral leg as an internal control.
# For in vivo experiments, the OSI-296 inhibitor was dissolved in 40% Trappsol with 0.01 M HCl, and mice were treated at a concentration of 200 mg/kg daily by oral gavage. […]
# bone marrow osteoclasts = assay: Osteoclast resorption assay; format: cell-based, mice; details: WT osteoclasts, inhibitors 10 μM or muRANK-Fc 10 μg/mL daily day 9 to 12
# Description: Bone marrow osteoclasts were generated from 6 to 8 week old WT and RonTK−/− mice. Briefly, bone marrow was isolated from hindlimb bones and plated in α-MEM media containing 10% heat-inactivated fetal bovine serum (FBS, Sigma, St. Louis, Mo.), 100 units/mL penicillin-streptomycin (Hyclone), and 33 ng/mL human macrophage colony-stimulating factor (hM-CSF) (PeproTech, Rocky Hill, N.J.) for 24 hours. Non-adherent cells were collected and frozen for later use. To assess resorption activity, bone marrow precursor cells were thawed and seeded at a density of 1×10^5 cells per well in BioCoat Osteologic slides (BD Biosciences, San Jose, Calif.) in α-MEM media containing 10% FBS and antibiotics. After adhering overnight, media was removed and media containing 33 ng/mL hM-CSF and 9 ng/mL muRANKL (R & D systems, Minneapolis, Minn.) was added. The medium was changed every 3 days depending on acidification, and the assay was terminated as indicated. Recombinant human MSP was prepared and added daily as indicated. Cells were removed with 6% bleach and slides were viewed microscopically using phase-contrast with 20× magnification. Osteolytic resorption area within 5 representative fields was determined using Image J software, experiments were performed in triplicate. […]
# ERK = assay: Western blot of osteoclast lysates, ERK; format: cell-based, mice; details: osteoclasts
# Description: Cells were serum starved (0.5% FBS) for 3 hours prior to lysate collection. Inhibitors were added 1 hour prior to lysis and MSP was added 15 min prior to lysis when indicated. Cells were washed with 1×PBS and harvested in lysis buffer (25 mM Tris-HCl, pH 7.5, 0.42 M NaCl, 1.5 mM MgCl2, 0.5 mM EDTA, 1 mM DTT, 25% sucrose, and 0.1% Triton X-100) plus 100× protease arrest (Bioscience, Bozeman, Mont.) and 100× orthovanadate. Primary antibodies used for immunoblotting include: anti-MSP (Santa Cruz, sc-6090, Dallas, Tex.) at a 1:250 dilution, anti-pan Akt (Cell Signaling, #4691S, Beverly, Mass.) at a 1:1000 dilution, anti-pan Erk (Cell Signaling, #4695, Beverly, Mass.) at a 1:1000 dilution, anti-phospho Akt (Cell Signaling, #9271 L, Beverly, Mass.) at a 1:500 dilution, anti-phospho Erk (Cell Signaling, #4370S, Beverly, Mass.) at a 1:500 dilution, anti-Src (Cell Signaling, #2110, Beverly, Mass.) at a 1:500 dilution, and anti-phospho Src (Y416) (Cell Signaling, #2113, Beverly, Mass.) at a 1:500 dilution. The secondary antibodies used were HRP-conjugated anti-goat IgG (Santa Cruz, Dallas, Tex.) and anti-rabbit IgG (Santa Cruz, Dallas, Tex.). Chemiluminescent signals were detected using Immun-Star HRP (BioRad, Hercules, Calif.).
structure (smiles),measurement,setting,value
CCOc1ccn(-c2ccc(F)cc2)c(=O)c1C(=O)Nc1ccc(Oc2ccnc(N)c2Cl)c(F)c1 [ASLAN002],osteolysis from DU4475 cells,[1],prevented osteolysis
same,MSP-induced increase in osteoclast resorption (resorption area),bone marrow osteoclasts,dramatically reduced
same,ERK activity,ERK,no effect
